Reference: patent US12370263B2, “Cyclic dinucleotide derivative based antibody-drug conjugates” (DAIICHI SANKYO COMPANY, LIMITED, priority 2018, dated 2025)
Read-outs that look alike come from different tables or passages of the source.

What was measured:
[1] = biological target: T1, HisAviTEV-hSTING (139-342) human wild-type protein (Homo sapiens, UniProt Q86WV6, H232R); assay: Protein thermal shift assay, STING C-terminal binding domain protein; details: test compound final concentration 0.5 mM
T1 construct: made in house; host or cells: E. coli Rosetta 2 (DE3), co-expressed with BirA (1-321)
T1 sequence (Q86WV6 with tags, fused parts or gaps H232R): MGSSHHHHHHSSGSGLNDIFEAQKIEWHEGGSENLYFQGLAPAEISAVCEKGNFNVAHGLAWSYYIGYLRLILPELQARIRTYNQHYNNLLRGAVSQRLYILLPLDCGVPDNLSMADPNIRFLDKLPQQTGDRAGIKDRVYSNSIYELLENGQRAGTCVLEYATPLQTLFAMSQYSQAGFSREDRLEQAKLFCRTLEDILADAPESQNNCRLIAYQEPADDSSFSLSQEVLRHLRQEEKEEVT

[2] = biological target: T2, HisAviTEV-hSTING (139-342) human REF-mutated protein (Homo sapiens, UniProt Q86WV6); assay: as above; details: test compound final concentration 0.5 mM
T2 construct: made in house; host or cells: E. coli Rosetta 2 (DE3), co-expressed with BirA (1-321)
T2 sequence (Q86WV6 with tags, fused parts or gaps, change not shown): as the sequence (Q86WV6 with tags, fused parts or gaps H232R) above, with R133H counted along it

[3] = biological target: T3, HisAviTEV-hSTING (139-342) human AQ-mutated protein (Homo sapiens, UniProt Q86WV6, G230A/H232R/R293Q); assay: as above; details: test compound final concentration 0.5 mM
T3 construct: made in house; host or cells: E. coli Rosetta 2 (DE3), co-expressed with BirA (1-321)
T3 sequence (Q86WV6 with tags, fused parts or gaps G230A/H232R/R293Q): as the sequence (Q86WV6 with tags, fused parts or gaps H232R) above, with G131A, R194Q counted along it

[4] = biological target: T4, His-Avi-TEV-mSTING (138-341) mouse wild-type protein (Mus musculus, UniProt Q3TBT3); assay: as above; details: test compound final concentration 0.5 mM
T4 construct: made in house; host or cells: E. coli Rosetta 2 (DE3), co-expressed with BirA (1-321)
T4 sequence (Q3TBT3 with tags, fused parts or gaps limits assumed): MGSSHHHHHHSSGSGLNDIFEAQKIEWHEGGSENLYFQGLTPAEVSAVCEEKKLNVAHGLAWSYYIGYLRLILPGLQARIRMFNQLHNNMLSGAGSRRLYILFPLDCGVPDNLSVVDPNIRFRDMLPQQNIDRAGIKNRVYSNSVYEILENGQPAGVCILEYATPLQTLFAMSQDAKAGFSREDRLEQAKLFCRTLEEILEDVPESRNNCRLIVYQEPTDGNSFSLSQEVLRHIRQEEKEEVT
Experimental: Each of these expression strains was added to a TB medium containing 100 μg/mL ampicillin, 50 μg/mL streptomycin, and 30 μg/mL kanamycin, cultured at 37° C., then exposed to 100 μM IPTG for inducible expression, and further cultured at 16° C.
The culture solution was centrifuged, and the resulting bacterial cells were suspended in 50 mM HEPES pH 8.0, 500 mM NaCl, 20 mM imidazole, 1 mM DTT, 5% (w/v) glycerol, Complete EDTA free, and then subjected to freeze-thawing. After addition of Lysozyme and DNase I, proteins were extracted by ultrasonic disintegration, and centrifugation was performed and the resulting supernatant was collected. The supernatant obtained was purified by using an AKTA express chromatography system (GE Healthcare, IL, US) with a HisTrap FF column (GE Healthcare), and eluted with buffer (20 mM HEPES pH 7.5, 120 mM NaCl, 20% Glycerol, 0.8 mM DTT) through a Superdex 200 16/60 column (GE Healthcare). […] The protein concentrations were measured by using a NanoDrop2000 (Thermo Fisher Scientific, MA, US), and the proteins were cryopreserved at −80° C. until use.
The binding ability of each compound to the STING C-terminal binding domain proteins was evaluated by protein thermal shift assay, which uses the elevation of thermal denaturation temperature of protein as an index.
Specifically, 3 μL of a test compound (final concentration: 0.5 mM), 3 μL of SYPRO Orange Protein Gel Stain (Thermo Fisher Scientific) (final concentration: 20-fold), and 6 μL of a STING protein were mixed with use of assay buffer (20 mM Tris-HCl pH 7.5, 120 mM NaCl) in a 384-well real-time PCR plate, and mixed together with a plate shaker. With a real-time PCR system (Thermo Fisher Scientific), the temperature was increased from 25° C. to 95° C. at a rate of 0.03° C./sec, and the thermal denaturation temperature of the protein was measured by using fluorescence emitted from SYPRO Orange as an index. From the measurement acquired, Tm (the midpoint of the unfolding transition) (° C.) was determined as a temperature at which the increase rate of fluorescence intensity was maximized by using the analysis software Protein Thermal Shift software (Thermo Fisher Scientific). The Tm value for a well with no compound was subtracted from the Tm value for each test compound to calculate the Tm shift caused by the compound as ΔTm (° C.).

Human STING = Human STING (Homo sapiens, UniProt Q86WV6, G230A/H232R/R293Q/R71H); assay: Reporter gene assay, human STING agonist activity, THP1-Dual cells (HAQ-mutated), IRF pathway; details: 24 hours, 100% = maximum count with ML-RR-CDA·2Na+
Chain of Human STING (Q86WV6 whole entry R71H/G230A/H232R/R293Q): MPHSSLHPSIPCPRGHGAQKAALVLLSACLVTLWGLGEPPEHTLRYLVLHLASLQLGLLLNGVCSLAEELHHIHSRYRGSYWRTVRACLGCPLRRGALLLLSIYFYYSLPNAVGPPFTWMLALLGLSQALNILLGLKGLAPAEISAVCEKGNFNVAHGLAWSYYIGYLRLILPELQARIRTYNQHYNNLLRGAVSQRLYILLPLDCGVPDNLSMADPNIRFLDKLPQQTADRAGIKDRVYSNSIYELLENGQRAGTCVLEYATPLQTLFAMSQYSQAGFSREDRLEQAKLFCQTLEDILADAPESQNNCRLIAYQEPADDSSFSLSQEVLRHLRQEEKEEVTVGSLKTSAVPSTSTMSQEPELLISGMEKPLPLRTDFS
Experimental: Human STING agonist activity was evaluated by using THP1-Dual™ cells (HAQ-mutated) (InvivoGen, CA, US), with which the activation of the pathway of interferon regulatory factor-3 (IRF3), which is present in the downstream of the STING pathway, can be confirmed.
Assay was performed as follows. First, a test compound diluted with PBS was aliquoted into a transparent 96-well plate (Corning Incorporated, NY, US) at 20 μL/well. Subsequently, reporter cells suspended in assay buffer (an RPMI1640 medium or DMEM medium containing 10% bovine serum albumin) were added at 180 μL/well (1×10^5 cells/well) to initiate stimulation. After the cells were cultured in an environment at 37° C. and 5% CO2 for 24 hours, the resultant was centrifuged to collect the supernatant. To a white 384-well plate, 6 μL of the supernatant collected was added, and 15 μL of QUANTI-Luc (InvivoGen) solution was added thereto. After the resultant was well mixed together, emission was measured by using a plate reader (PerkinElmer, Inc., MA, US).

CT26.WT cells = assay: Anti-Tumor Test (1), intratumoral administration; type: in vivo, BALB/c mouse; details: 10 μg intratumorally on Day 7, 9, and 11; CT26.WT in BALB/c mice; FIGS. 7a and 7b
Experimental: Mice: Before use for experiment, 5-week-old female BALB/c mice (BALB/cAnNCrlCrlj) (Charles River Laboratories Japan, Inc.) were habituated under SPF conditions for 4 days or longer.
Measurement, calculation formula: In all the studies, the major axis and minor axis of a tumor were measured twice or three times per week by using an electronic digital caliper (CD15-CX, Mitutoyo Corporation) to calculate tumor volume (mm^3). The calculation formula is as follows. Tumor volume (mm^3)=0.5×Major axis (mm)×[Minor axis (mm)]^2
Each test compound was diluted with physiological saline (Otsuka Pharmaceutical Factory, Inc.) for use. In administration of it, 50 μL was intratumorally administered.
Cells of the mouse colorectal cancer cell line CT26.WT (CRL2638) purchased from the American Type Culture Collection were used. CT26.WT cells were suspended in physiological saline, 1.0×10^6 cells were subcutaneously transplanted into the right axilla of each BALB/c mouse (Day 0), and 7 days thereafter the mice were randomly grouped. Each test compound in a dose of 10 μg was intratumorally administered on Day 7, 9, and 11, three times in total. A group with administration of physiological saline was set as a group with a vehicle. The number of mice in each group was five or six.

[5] = THP1-Dual cells IRF EC50, THP1-Dual cells (HAQ-mutated)

SMILES | ΔTm at 500 µM [1] | ΔTm at 500 µM [2] | ΔTm at 500 µM [3] | ΔTm at 500 µM [4] | EC50 (Human STING; [5]) | tumor growth (tumor volume) (CT26.WT cells) | ΔTm Hu-WT [1] | ΔTm Hu-REF [2] | ΔTm Hu-AQ [3] | ΔTm Ms-WT [4] | EC50 (Human STING; read-out: THP1-Dual cells IRF EC50, THP1-Dual cells (HAQ-mutated))
O=P1(S)OC[C@H]2O[C@@H](n3cc4c5c(ncnc53)NCCC4)[C@H](O)[C@@H]2OP(=O)(S)OC[C@H]2O[C@@H](n3cnc4c(CO)ncnc43)[C@H](O1)[C@@H]2O (single isomer, unassigned) [17a] | 7.3 °C | 2.7 °C | 10.7 °C | 12.6 °C | 4400 nM |  |  |  |  |  | 
Nc1ncnc2c1ncn2[C@@H]1O[C@@H]2COP(=O)(S)O[C@H]3[C@@H](O)[C@H](n4cc5c6c(ncnc64)NCCC5)O[C@@H]3COP(=O)(S)O[C@@H]1[C@@H]2O (single isomer, unassigned) [1a] | 8.4 °C | 3.4 °C | 12 °C | 14.3 °C | 5900 nM |  |  |  |  |  | 
O=C(CO)NCCn1cnc2c(ncn2[C@@H]2O[C@@H]3COP(=O)(S)O[C@H]4[C@@H](F)[C@H](n5cc6c7c(ncnc75)NCCC6)O[C@@H]4COP(=O)(S)O[C@@H]2[C@@H]3O)c1=O (single isomer, unassigned) [36a] | 10.8 °C | 5.8 °C | 13.3 °C | 15.4 °C | 2000 nM |  |  |  |  |  | 
NCCNc1nc(N)c2ncn([C@@H]3O[C@@H]4COP(=O)(S)O[C@H]5[C@@H](F)[C@H](n6cc7c8c(ncnc86)NCCC7)O[C@@H]5COP(=O)(S)O[C@@H]3[C@@H]4O)c2n1 (single isomer, unassigned) [37a] | 11.2 °C | 5.2 °C | 13.6 °C | 15.3 °C | 980 nM |  |  |  |  |  | 
Nc1nc(NCCO)nc2c1ncn2[C@@H]1O[C@@H]2COP(=O)(S)O[C@H]3[C@@H](O)[C@H](n4cc5c6c(ncnc64)NCCC5)O[C@@H]3COP(=O)(S)O[C@@H]1[C@@H]2O (single isomer, unassigned) [9b] |  |  |  |  | 2400 nM | significantly suppressed |  |  |  |  | 
O=c1c2ncn([C@@H]3O[C@@H]4COP(=O)(S)O[C@H]5[C@@H](O)[C@H](n6cc7c8c(ncnc86)NCCC7)O[C@@H]5COP(=O)(S)O[C@@H]3[C@@H]4F)c2ncn1CCO (single isomer, unassigned) [39a] | 10.4 °C | 5.7 °C | 12.9 °C | 15 °C | 190 nM |  |  |  |  |  | 
O=c1c2ncn([C@@H]3O[C@@H]4COP(=O)(O)O[C@H]5[C@@H](F)[C@H](n6cc7c8c(ncnc86)NCCC7)O[C@@H]5COP(=O)(O)O[C@@H]3[C@@H]4O)c2ncn1CCO [compound 54, Disodium (5R,7R,8R,12aR,14R,15R,15aR,16R)-15-fluoro-16-hydroxy-7-[1-(2-hydroxyethyl)-6-oxo-1,6-dihydro-9H-purin-9-yl]-2,10-dioxo-14-(6,7,8,9-tetrahydro-2H-2,3,5,6-tetraazabenzo[cd]azulen-2-yl)octahydro-2H,10H,12H-5,8-methano-2λ^5,10λ^5-furo[3,2-1][1,3,6,9,11,2,10]pentaoxadiphosphacyclotetradecine-2,10-bis(olate)] | 8.3 °C | 3.4 °C | 9.8 °C | 12.1 °C | 4000 nM |  |  |  |  |  | 
Nc1ncnc2c1ncn2[C@@H]1O[C@@H]2COP(=O)(S)O[C@H]3[C@@H](O)[C@H](n4cc5c6c(ncnc64)SCCC5)O[C@@H]3COP(=O)(S)O[C@@H]1[C@@H]2O (single isomer, unassigned) [23a] | 9.7 °C | 4.2 °C | 12.2 °C | 15.6 °C | 2600 nM |  |  |  |  |  | 
NCCNc1nc(N)c2ncn([C@@H]3O[C@@H]4COP(=O)(S)O[C@H]5[C@@H](F)[C@H](n6cc7c8c(ncnc86)SCCC7)O[C@@H]5COP(=O)(S)O[C@@H]3[C@@H]4F)c2n1 (single isomer, unassigned) [51b] | 9.9 °C | 4.3 °C | 11.6 °C | 17 °C | 430 nM |  |  |  |  |  | 
O=c1c2ncn([C@@H]3O[C@@H]4COP(=O)(S)O[C@H]5[C@@H](F)[C@H](n6cc7c8c(ncnc86)NCCC7)O[C@@H]5COP(=O)(S)O[C@@H]3[C@@H]4O)c2ncn1CCO (single isomer, unassigned) [34a] | 14.7 °C | 8.8 °C | 18.9 °C | 20.3 °C | 200 nM |  |  |  |  |  | 
O=c1[nH]cnc2c1ncn2[C@@H]1O[C@@H]2COP(=O)(S)O[C@H]3[C@@H](O)[C@H](n4cc5c6c(ncnc64)NCCC5)O[C@@H]3COP(=O)(S)O[C@@H]1[C@@H]2O (single isomer, unassigned) [25b] |  |  |  |  | 900 nM |  | 10.6 °C | 4.6 °C | 13.1 °C | 15.8 °C | 
NCCNc1nc(N)c2ncn([C@@H]3O[C@@H]4COP(=O)(S)O[C@H]5[C@@H](O)[C@H](n6cc7c8c(ncnc86)NCCC7)O[C@@H]5COP(=O)(S)O[C@@H]3[C@@H]4F)c2n1 (single isomer, unassigned) [42b] |  |  |  |  | 4700 nM |  | 5.3 °C | 1.4 °C | 7.4 °C | 10.6 °C | 
NCCn1cnc2c(ncn2[C@@H]2O[C@@H]3COP(=O)(S)O[C@H]4[C@@H](F)[C@H](n5cc6c7c(ncnc75)NCCC6)O[C@@H]4COP(=O)(S)O[C@@H]2[C@@H]3O)c1=O (single isomer, unassigned) [35a] | 11 °C | 6.6 °C | 13.1 °C | 13.5 °C | 2000 nM |  |  |  |  |  | 
O=c1c2ncn([C@@H]3O[C@@H]4COP(=O)(S)O[C@H]5[C@@H](O)[C@H](n6cc7c8c(ncnc86)NCCC7)O[C@@H]5COP(=O)(S)O[C@@H]3[C@@H]4O)c2ncn1CCCO (single isomer, unassigned) [26b] | 9.1 °C | 3.9 °C | 11.5 °C | 14.1 °C | 1200 nM |  |  |  |  |  | 
Nc1nc2c(ncn2[C@@H]2O[C@@H]3COP(=O)(S)O[C@H]4[C@@H](O)[C@H](n5cc6c7c(ncnc75)NCCC6)O[C@@H]4COP(=O)(S)O[C@@H]2[C@@H]3O)c(=O)[nH]1 (single isomer, unassigned) [4b] |  |  |  |  | 1500 nM |  | 9.8 °C | 3.5 °C | 13.1 °C | 14.9 °C | 
O=C(CO)NCCn1cnc2c(ncn2[C@@H]2O[C@@H]3COP(=O)(S)O[C@H]4[C@@H](F)[C@H](n5cc6c7c(ncnc75)NCCC6)O[C@@H]4COP(=O)(S)O[C@@H]2[C@@H]3O)c1=O (single isomer, unassigned) [36b] |  |  |  |  |  |  | 10.1 °C | 5.5 °C | 11.8 °C | 19.3 °C | 2000 nM
